In ChEMBL document CHEMBL1128837, “The evaluation of 2- and 6-substituted carbocyclic nucleosides as building blocks for antisense oligonucleotides” (Bioorg Med Chem Lett, 1995):

How the values were obtained:
[1] = Difference in melting temperature (Tm) between the modified DNA/RNA duplex and the unmodified wild type (WT) duplex per modification at 48 degree Celsius (5'-GCGttttttttttGCG-3'); format: functional
[2] = Difference in melting temperature (Tm) between the modified DNA/RNA duplex and the unmodified wild type (WT) duplex per modification at 61.7 degree Celsius (5'-CTCGTACttttCCGGTCC-3'); format: functional
[3] = Difference in melting temperature (Tm) between the modified DNA/RNA duplex and the unmodified wild type (WT) duplex per modification at 63.9 degree Celsius (5'-CTCGTACCtTTCCGGTCC-3'); format: functional
[4] = Difference in melting temperature (Tm) between the modified DNA/RNA duplex and the unmodified wild type (WT) duplex per modification at 52.3 degree Celsius (5'-TTTTtCTCTCTCTCT-3'); format: functional
[5] = Stability against degradation by 3'-exonucleases for the sequence 5'-d(TCC AGG TGT CCG TTT C)-3' in 10% heat-activated fetal calf serum (FCS); format: functional
[6] = Difference in melting temperature (Tm) between the modified DNA/RNA duplex and the unmodified wild type (WT) duplex per modification at 52.3 degree Celsius (5'-tttttctctctctT-3'); format: functional
[7] = Difference in melting temperature (Tm) between the modified DNA/RNA duplex and the unmodified wild type (WT) duplex per modification at 63.9 degree Celsius (5-ctcGtacctttccGGtcC-3; format: functional
[8] = Ratio of effect of compound on the nuclease resistance of full length oligonucleotide to that of wild type in 10% heat-activated fetal calf serum (FCS); format: functional
[9] = Effect of compound on the nuclease resistance of wild type 5'-d(TCC AGG TGT CCG TTT C)-3' in 10% heat-activated fetal calf serum (FCS) expressed as t1/2; format: functional
[10] = Difference in melting temperature (Tm) between the modified DNA/RNA duplex and the unmodified wild type (WT) duplex per modification at 61.8 degree Celsius (5'-tCCAGGtGtCCGCAtC-3'); format: functional
[11] = Effect of compound on the nuclease resistance of 5'-d(TCC AGG TGT CCG TTT C)-3' in 10% heat-activated fetal calf serum (FCS) expressed as t1/2; format: functional
[12] = Difference in melting temperature (Tm) between the modified DNA/RNA duplex and the unmodified wild type (WT) duplex per modification at 52.3 degree Celsius (5-tttttc*tc*tc*tc*tc*T-3); format: functional
[13] = Melting temperature (Tm) of the modified DNA/RNA duplex at 48 degree Celsius (5'-GCGtttttttttGCG-3'); No cooperative melting observed
[14] = Melting temperature (Tm) of the modified DNA/RNA duplex at 48 degree Celsius (5'-GCGttttttttttGCG-3')
[15] = Difference in melting temperature (Tm) between the modified DNA/RNA duplex and the unmodified wild type (WT) duplex per modification at 52.3 degree Celsius (5-tttttC*tc*tc*tc*tc*T-3); format: functional

Row | SMILES | ΔTm [1] | ΔTm [2] | ΔTm [3] | ΔTm [4] | ΔTm [5] | ΔTm [6] | ΔTm [7] | Ratio [8] | T1/2 [9] [h] | ΔTm [10] | T1/2 [11] [h] | ΔTm [12] | Tm [13] [°C] | Tm [14] [°C] | ΔTm [15]
1 | CO[C@@H]1[C@H](O)[C@@H](CO)C[C@H]1n1cc(C)c(=O)[nH]c1=O | -1 | -0.7 | -1.9 | 1.1 | – | – | – | – | – | – | – | – | – | – | –
2 | Cc1cn([C@H]2C[C@H](O)[C@@H](CO)O2)c(=O)[nH]c1=O | 0.25 | – | 0.2 | – | 2.5 | 0.4 | 0.3 | – | – | – | – | – | – | – | –
3 | CO[C@H]1[C@H](CO)[C@@H](O)C[C@@H]1n1cc(C)c(=O)[nH]c1=O | -0.9 | -0.7 | 0.2 | -2 | – | – | – | 10 | 2 | -1.3 | 20 | – | – | – | –
4 | Cc1cn([C@H]2C[C@H](O)[C@@H](CO)[C@@H]2O)c(=O)[nH]c1=O | 0.8 | 0.2 | – | -0.8 | – | – | – | 7 | 2 | -0.4 | 14 | 0.4 | – | – | –
5 | Cc1cn([C@H]2C[C@H](O)[C@@H](CO)[C@@H]2OCCCc2ccccc2)c(=O)[nH]c1=O | – | -1.7 | -2.8 | -4 | – | – | – | > 24 | 2 | -2.8 | > 48 | – | < 20 | < 20 | –
6 | COCCOCCOCCO[C@@H]1[C@H](O)[C@@H](CO)C[C@H]1n1cc(C)c(=O)[nH]c1=O | – | -2.6 | -2.9 | 0.2 | – | – | – | – | – | -1.1 | – | – | – | < 20 | –
7 | Cc1cn([C@H]2C[C@H](O)[C@@H](CO)[C@@H]2OCCCCN)c(=O)[nH]c1=O | -1.9 | – | -1.8 | -1.1 | – | – | – | > 24 | 2 | -1.4 | > 48 | – | – | – | –
8 | COCCOCCO[C@H]1[C@H](CO)[C@@H](O)C[C@@H]1n1cc(C)c(=O)[nH]c1=O | – | – | – | -1.8 | – | – | – | – | – | – | – | – | – | – | -1.9
